# pIC50: −log10 of the molar value. Several values for one entry are separate records, joined by “and”; a condition that tells them apart may be missing. Equal values may be shown once.
# Tested on: 171881-019-R-J1-PDC complex spheroid viability
# Test: Anticancer human tumor 171881-019-R-J1-PDC patient-derived invasive breast carcinoma cell line growth inhibition
# Details: for viability, T/C: stronger effect = lower value
# Excerpt: Multicellular complex tumor spheroid response to LSD1 Inhibitor Iadademstat in combination with a variety of drugs and investigational agents in selected tumor cell lines
# The current study was undertaken to assess response to LSD1 inhibitors in combination with standard-of-care drugs and investigational agents in solid tumor complex spheroid models as well as in the K-562 leukemia. Complex spheroids include a stromal component modeled by human endothelial cells (HUVEC) and fibroblasts modeled by human mesenchymal stem cells (MSCs). The concentration ranges selected for each drug and investigational agent were based upon clinically achievable concentrations if the clinical Cmax of the agent was known.
# Compounds. The drugs and investigational agents used in this study are listed on Table 1. All of the agents used, including staurosporine (NSC755774) and gemcitabine (NSC613327), were obtained from the Developmental Therapeutics Program, NCI. FDA-approved anticancer drugs are available from the NCI at http://dtp.nci.nih.gov/branches/dscb/oncology_drugset_explanation.html. Drugs and investigational agents were >95% pure by proton nuclear magnetic resonance (NMR) and liquid chromatography/mass spectrometry (LC/MS). Stock solutions were prepared at 400x in DMSO, stored at -70 degrees C, and diluted in fresh medium prior to their use. The final concentration of DMSO in cell culture wells never exceeded 0.25% (v/v). The FDA-approved anticancer drug set is available from the Developmental Therapeutics Program at https://dtp.cancer.gov/organization/dscb/obtaining/available_plates.htm. All drugs and investigational agents were tested over a range starting from a high concentration at or near the clinical Cmax and decreasing in half-log increments. If the clinical Cmax for an agent had not been determined, the highest concentration tested was 10 microM.
# Cell Lines. The patient-derived cancer cell (PDC) lines: 292921-168-R-J2-PDC, K24384-001-R-PDC, and 521955-158-R2-J5-PDC pancreatic carcinomas, 556581-035-R-J1 ovarian carcinoma, 324938-238-R-J1-PDC, 855422-203-R-J1-PDC and 883617-216-R-J1-PDC urothelial bladder carcinomas, 743489-274-T-PDC renal cell carcinoma, 138582-R-J1 Merkel cell tumor, K60290-347-R-J1 and K57222-313-R-J1-PDC glioblastomas, 653999-131-R-J2-PDC, LG0703-F948-PDC, and 349418-098-R-PDC non-small cell lung carcinomas, 885512-296-R-J2-PDC, 171881-019-R-J1-PDC breast carcinomas and 186277-243-T-J2-PDC and 233499-124-R-J2-PDC colon carcinomas were obtained from the NCI Patient-Derived Models Repository (PDMR, https://pdmr.cancer.gov). The established cell lines NCI/ADR-RES (RRID:CVCL_14520 and OVCAR-5 (RRID:CVCL_1628) ovarian carcinomas, 786-O (RRID:CVCL_1051) and A498 (RRID:CVCL_A498) renal cell carcinoma, NCI-H211 (ATCC, cat. CRL-5824; RRID:CVCL_1529), NCI-H196 (ATCC, cat. CRL-5823, RRID:CVCL_1509), SW 1271 (ATCC, cat. CRL-2177, RRID:CVCL_1716) and NCI-H1876 (ATCC, cat. CRL-5902, RRID:CVCL_1503) small cell lung carcinomas, MDA-MB-231 (RRID:CVCL_0062) and MDA-MB-468 (RRID:CVCL_0419)breast carcinomas (10-12). Pooled donor human umbilical vein endothelial cells (HUVEC, Lonza, cat. CC-2519) and human mesenchymal stem cells (hMSC, Lonza, cat. PT-2501) were purchased from Lonza (Walkersville, MD).
# Cell Culture. All cells were maintained in an incubator at 37 degrees C and 5% CO2 with 95% humidity. The PDC lines were cultured according to standard operating procedures established by the NCI PDMR (https://pdmr.cancer.gov). Briefly all PDCs were thawed and cultured in Matrigel-coated flasks prepared with a working solution of 1X Ham's F-12 nutrient mix, without supplementation (Invitrogen, Waltham, MA, cat. 11765054), 100 U/mL penicillin-streptomycin (Invitrogen, cat. 15140122), and 2.5% Matrigel (Corning Inc., Corning, NY, cat. 354248) for the first three passages. […]
# 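Note: spheroids exposed to agents for 7 days after 3 days growth.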
pIC50 (curve of compound),Structure (SMILES),"viability, T/C (compound 0.0316 µM)","viability, T/C (compound 0.1 µM)","viability, T/C (compound 0.316 µM)","viability, T/C (compound 1 µM)","viability, T/C (compound 0.00949 µM)","viability, T/C (compound 0.03 µM)","viability, T/C (compound 0.0949 µM)","viability, T/C (compound 0.3 µM)",further results
< 7.00,Cn1ncnc1C1c2n[nH]c(=O)c3cc(F)cc(c23)NC1c1ccc(F)cc1 (configuration not stated),82.2% and 97.7%,97.2% and 98.6%,–,–,–,–,–,–,"viability, T/C (compound 0.000316 µM): 92.8% and 99.4%; viability, T/C (compound 0.001 µM): 103% and 104%; viability, T/C (compound 0.00316 µM): 88% and 103%; viability, T/C (compound 0.01 µM): 102% and 99%"
7.57 and > 8.02,NS(=O)(=O)OCC1CC(n2ccc3c(NC4CCc5ccccc54)ncnc32)CC1O (configuration not stated),–,–,–,–,101% and 40.4%,44.4% and 34.8%,25.8% and 27.8%,24.2% and 25.3%,"viability, T/C (compound 0.949 µM): 25.5% and 29.9%; viability, T/C (compound 3 µM): 22.4% and 21.6%"
6.56 and 6.27,Nc1ccccc1NC(=O)c1ccc(CNC(=O)OCc2cccnc2)cc1,–,–,–,–,96.1% and 95.3%,102% and 98.5%,135% and 108%,45.6% and 92.6%,"viability, T/C (compound 0.949 µM): 2.72% and 9.58%; viability, T/C (compound 3 µM): 0.41% and 0.94%"
< 5.00 and 5.49,O=C(c1cc(Cc2n[nH]c(=O)c3ccccc23)ccc1F)N1CCN(C(=O)C2CC2)CC1,90.8% and 96.5%,94.5% and 103%,83.5% and 95.9%,91.6% and 83%,–,–,–,–,"viability, T/C (compound 3.16 µM): 82.8% and 50.5%; viability, T/C (compound 10 µM): 101% and 21.5%"

# The next lines start with the compound.
Structure (SMILES),pIC50 (curve of compound),"viability, T/C (compound 0.0316 µM)","viability, T/C (compound 0.1 µM)","viability, T/C (compound 0.316 µM)","viability, T/C (compound 1 µM)","viability, T/C (compound 0.00949 µM)","viability, T/C (compound 0.03 µM)","viability, T/C (compound 0.0949 µM)","viability, T/C (compound 0.3 µM)",further results
COc1ccc([C@@H](O)c2cc(-c3ncnc4cc(N5CCOCC5)ccc34)c(F)cc2Cl)nn1,6.10 and 6.22,101% and 98.9%,128% and 95.7%,98.3% and 76%,38.5% and 29.6%,–,–,–,–,"viability, T/C (compound 3.16 µM): 7.38% and 8.2%; viability, T/C (compound 10 µM): 6.64% and 11.3%"
NC1CCC(NC2CC2c2ccccc2)CC1 (configuration not stated),–,–,–,79.8% and 83.8% and 81.9%,–,–,–,–,–,"pIC50 (compound alone, run of 02/15/2022): < 5.00"
Nc1ccn(C2OC(CO)C(O)C2(F)F)c(=O)n1 (configuration not stated),< 6.52,–,–,–,–,57.9% and 55.9%,62.1% and 61.5%,64.6% and 63.9%,58.1% and 64.4%,"viability, T/C (compound 0.000949 µM): 73.3% and 67.7%; viability, T/C (compound 0.003 µM): 53.2% and 58.2%"
Nc1ncn(C2CC(O)C(CO)O2)c(=O)n1 (configuration not stated),< 6.00,128% and 95.1%,130% and 93.4%,120% and 91.2%,105% and 81.2%,–,–,–,–,"viability, T/C (compound 0.00316 µM): 109% and 97.4%; viability, T/C (compound 0.01 µM): 122% and 97.5%"
Nc1ncn(C2CC(O)C(CO)S2)c(=O)n1 (configuration not stated),6.69 and 6.94,–,–,–,–,136% and 94.5%,124% and 76.7%,73% and 53.8%,38% and 34.8%,"viability, T/C (compound 0.000949 µM): 95.1% and 102%; viability, T/C (compound 0.003 µM): 98% and 105%"
O=C(C=Cc1cccc(S(=O)(=O)Nc2ccccc2)c1)NO,6.37 and 6.40,–,–,–,–,95.8% and 103%,96.6% and 93%,111% and 99.2%,72.5% and 65.1%,"viability, T/C (compound 0.949 µM): 0.88% and 1.85%; viability, T/C (compound 3 µM): 0.2% and 0.16%"
O=C(C=Cn1cnc(-c2cc(C(F)(F)F)cc(C(F)(F)F)c2)n1)NNc1cnccn1,> 8.50,4.83% and 4.44%,1.49% and 1.82%,1.62% and 1.88%,1.54% and 1.63%,–,–,–,–,"viability, T/C (compound 0.00316 µM): 16.8% and 17.6%; viability, T/C (compound 0.01 µM): 12.1% and 12.7%"

# From PubChem BioAssay AID1918932 (Molecular Pharmacology Branch, DTP, NCI, 2023)
